From US10696898B2, “Reverse photochromic compound” (FUJIFILM Wako Pure Chemical Corporation, priority 2017, dated 2020)

Assays:
[1] = Evaluation of solubility and compatibility of compound 8 (Experiment Example 8); format: physicochemical; conditions: 20° C.
Protocol: The solubility and the compatibility of the compound 8 obtained in Example 2 were evaluated in the following manner.
In other words, 100 mg of the compound 8 was weighed in a glass container (manufactured by NICHIDEN RIKA GLASS CO., LTD.), 10 mg of various organic solvents were added thereto in a state in which the temperature thereof was maintained to 20° C., and the solution was stirred for 10 minutes. In a case where the solid content remained, the operation of adding 10 mg of the organic solvents and stirring the solution for 10 minutes was repeated, and the amount (A mg) of the organic solvents to be used at the time of complete dissolution of the compound 8 was measured. The solubility (%) was acquired based on the value of A mg using the following equation. Solubility (%)=100 mg/(100 mg+A mg)×100

[2] = Evaluation of solvent dependence of reverse photochromic characteristics of compound 8 (Experiment Example 5); format: physicochemical
Protocol: The solvent dependence of the reverse photochromic characteristics of the compound 8 was evaluated in the following manner.
Various solutions of the compound 8 obtained in Example 2 were prepared using the following methods (1-1) to (1-7).
First, 1.2 mg (8.7×10^−7 mol) of the compound 8 was weighed in a vial bottle (glass bottle), and […] of methanol was added thereto to prepare a solution having a concentration of 1.0×10^−4 mol/L. The obtained solution was poured into another vial bottle (glass bottle) and further diluted with methanol to prepare a methanol solution containing the compound 8 with a concentration of […].
First, 1.2 mg (8.7×10^−7 mol) of the compound 8 was weighed in a vial bottle (glass bottle), and 9 mL of toluene was added thereto to prepare a solution having a concentration of 9.3×10^−5 mol/L. The obtained solution was poured into another vial bottle (glass bottle) and further diluted with toluene to prepare a toluene solution containing the compound 8 with a concentration of 1.9×10^−5 mol/L.
First, 1.2 mg (8.7×10^−7 mol) of the compound 8 was weighed in a vial bottle (glass bottle), and 10 mL of acetonitrile was added thereto to prepare a solution having a concentration of 8.7×10^−5 mol/L. The obtained solution was poured into another vial bottle (glass bottle) and further diluted with acetonitrile to prepare an acetonitrile solution containing the compound 8 with a concentration of 2.2×10^−5 mol/L.
First, 1.1 mg […] of the compound 8 was weighed in a vial bottle (glass bottle), and 10 mL of chloroform was added thereto to prepare a solution having a concentration of 8.0×10^−5 mol/L. The obtained solution was poured into another vial bottle (glass bottle) and further diluted with chloroform to prepare a chloroform solution containing the compound 8 with a concentration of 1.8×10^−5 mol/L.
First, 1.5 mg […] of the compound 8 was weighed in a vial bottle (glass bottle), and 10 mL of o-dichlorobenzene was added thereto to prepare a solution having a concentration of 1.1×10^−4 mol/L. The obtained solution was poured into another vial bottle (glass bottle) and further diluted with o-dichlorobenzene to prepare an o-dichlorobenzene solution containing the compound 8 with a concentration of 2.2×10^−5 mol/L.
First, 1.3 mg (9.7×10^−7 mol) of the compound 8 was weighed in a vial bottle (glass bottle), and 10 mL of 2-propanol was added thereto to prepare a saturated solution. The supernatant of the obtained saturated solution was poured into another vial bottle (glass bottle) and further diluted with 2-propanol by three times to prepare a 2-propanol solution containing the compound 8.
First, 1.4 mg […] of the compound 8 was weighed in a vial bottle (glass bottle), and 10 mL of chlorobenzene was added thereto to prepare a solution having a concentration of 1.0×10^−4 mol/L. The obtained solution was poured into another vial bottle (glass bottle) and further diluted with chlorobenzene to prepare a chlorobenzene solution containing the compound 8 with a concentration of 2.0×10^−5 mol/L.
Various solutions containing the compound 8 obtained in the preparation (1) were put into a quartz cell having an optical path length of 1 cm together with a stirring bar, the solutions were irradiated with light while being stirred for 5 minutes under a condition of an irradiation intensity of 1 SUN (AM 1.5, 1000 W/m^2) using a solar simulator (product name: LAX-C100, manufactured by Asahi Spectra Co., Ltd.), and the absorbance of each solution at the maximum absorption wavelength was measured using a spectrophotometer (product name: V-670, manufactured by Jasco Corporation). Thereafter, the quartz cell was stored in a dark place, the absorbance at every fixed interval time was measured, and the temporal change of the absorbance of each solution at the maximum absorption wavelength was confirmed. […]

In the case of C=C(C)C(=O)OCCOC(=O)c1ccccc1-c1c2ccc(=[N+](CC)CC)cc-2oc2c1CCC/C2=C\c1ccc2c(c1)c1ccccc1n2CC [compound 8], the “Solubility (%)” value ([1]; Epoxy resin (jER ®)) is reported as 11%, the “Solubility (%)” value ([1]; organic solvent: 1-Methoxy-2-propanol (PGME)) is reported as 38% and the “Solubility (%)” value ([1]; organic solvent: Dibutyl sebacate (DBS)) is reported as 20%. The “Solubility (%)” value ([1]; organic solvent: Ethyl acetate (AcOEt)) was 50%, the “Solubility (%)” value ([1]; organic solvent: Methyl ethyl ketone (MEK)) was 50% and the “Solubility (%)” value ([1]; organic solvent: Methyl methacrylate (MMA)) was 50%. The “Solubility (%)” value ([1]; organic solvent: Toluene, 100 mg/(100 mg+A mg)×100) was 50%, the “Solubility (%)” value ([1]; organic solvent: Triethyl phosphate (TEP)) was 31% and the maximum absorption wavelength ([2]; 2-propanol solution) was 639 nm. It also gave a maximum absorption wavelength ([2]; acetonitrile solution) of 626 nm, a maximum absorption wavelength ([2]; chlorobenzene solution) of 659 nm and a maximum absorption wavelength ([2]; chloroform solution) of 650 nm. It also gave a maximum absorption wavelength ([2]; methanol solution) of 632 nm, a maximum absorption wavelength ([2]; o-dichlorobenzene solution) of 659 nm and a maximum absorption wavelength ([2]; toluene solution) of 653 nm.
